Consider 18 compounds from the SangsterLogP compilation.

As for `Clc1ccc(C(COCc2ccccc2)Cn2cncn2)c(Cl)c1` (stereo not drawn), the logP amounted to 3.83.
As for `Clc1ccc(C(COCc2ccc(OCc3ccccc3)cc2)Cn2cncn2)c(Cl)c1` (stereo not drawn), the figure is 4.46.
As to `CC(C)=CCOCC(Cn1cncn1)c1ccc(Cl)cc1Cl` (stereo not drawn), the logP turned out to be 3.91.
Take `COc1cccc(COCC(Cn2cncn2)c2ccc(Cl)cc2Cl)c1` (stereo not drawn): the logP amounted to 3.85.
In turn, `CC(C)(C)c1ccc(COCC(Cn2cncn2)c2ccc(Cl)cc2Cl)cc1` (stereo not drawn) came in with a logP of 4.84.
The compound `N#CCCOCC(Cn1cncn1)c1ccc(Cl)cc1Cl` (stereo not drawn) returned a logP of 0.36.
In turn, `C=C(C)COCC(Cn1cncn1)c1ccc(Cl)cc1Cl` (stereo not drawn) yielded a logP of 3.72.
As for `Clc1ccc(COCC(Cn2cncn2)c2ccc(Cl)cc2Cl)c(Cl)c1` (stereo not drawn), the figure is 4.71; as for `Clc1ccc(C(COCC=Cc2ccccc2)Cn2cncn2)c(Cl)c1` (stereo not drawn), 4.21.
For `C#CCOCC(Cn1cncn1)c1ccc(Cl)cc1Cl` (stereo not drawn), the logP came out at 2.93.
Next, `Clc1ccc(C(COCc2cccs2)Cn2cncn2)c(Cl)c1` (stereo not drawn): 4.42; `C=CCOCC(Cn1cncn1)c1ccc(Cl)cc1Cl` (stereo not drawn): 3.49; `C=C(Cl)COCC(Cn1cncn1)c1ccc(Cl)cc1Cl` (stereo not drawn): 3.7.
With `Clc1ccc(C(COCc2ccc3ccccc3c2)Cn2cncn2)c(Cl)c1` (stereo not drawn), the logP is 4.48.
For the compound `O=[N+]([O-])c1ccc(COCC(Cn2cncn2)c2ccc(Cl)cc2Cl)cc1` (stereo not drawn), the logP was 3.72.
The compound `Clc1ccc(C(COCCCc2ccccc2)Cn2cncn2)c(Cl)c1` (stereo not drawn) returned a logP of 4.77.
With `Clc1ccc(C(COCc2cccc(Oc3ccccc3)c2)Cn2cncn2)c(Cl)c1` (stereo not drawn), the logP came to 4.58.
Regarding `Clc1ccc(C(COCc2ccc(-c3ccccc3)cc2)Cn2cncn2)c(Cl)c1` (stereo not drawn), the logP is 4.29.
